From PubChem BioAssay (NCI)
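Tested at 5 concentrations; 48 h exposure; 96-well plates; endpoints linearly interpolated, else capped at highest concentration. The concentration for full growth arrest is given as TGI.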

What was measured:
Assay in all cases: DTP human tumour cell line panel, 48 h
HT29 colon = tested on: HT29 colon
HL-60(TB) leukemia = tested on: HL-60(TB) leukemia
RXF 393 renal = tested on: RXF 393 renal
NCI-H460 lung = tested on: NCI-H460 lung
OVCAR-5 ovarian = tested on: OVCAR-5 ovarian
DU-145 prostate = tested on: DU-145 prostate
HS 578T breast = tested on: HS 578T breast
SNB-75 CNS = tested on: SNB-75 CNS
SW-620 colon = tested on: SW-620 colon
MCF7 breast = tested on: MCF7 breast
RPMI-8226 leukemia = tested on: RPMI-8226 leukemia
MDA-N = tested on: MDA-N
OVCAR-3 ovarian = tested on: OVCAR-3 ovarian
SR leukemia = tested on: SR leukemia
NCI-H522 lung = tested on: NCI-H522 lung
KM12 colon = tested on: KM12 colon
IGROV1 ovarian = tested on: IGROV1 ovarian
OVCAR-8 ovarian = tested on: OVCAR-8 ovarian
ACHN renal = tested on: ACHN renal
HOP-62 NSCLC = tested on: HOP-62 NSCLC
SF-268 CNS = tested on: SF-268 CNS
CCRF-CEM leukemia = tested on: CCRF-CEM leukemia
K-562 leukemia = tested on: K-562 leukemia
SK-MEL-2 melanoma = tested on: SK-MEL-2 melanoma
BT-549 breast = tested on: BT-549 breast
EKVX NSCLC = tested on: EKVX NSCLC
NCI-H23 lung = tested on: NCI-H23 lung
TK-10 renal = tested on: TK-10 renal
UO-31 renal = tested on: UO-31 renal
MOLT-4 leukemia = tested on: MOLT-4 leukemia
LOX IMVI melanoma = tested on: LOX IMVI melanoma
A549 NSCLC = tested on: A549 NSCLC
MDA-MB-231 breast = tested on: MDA-MB-231 breast
SK-MEL-28 melanoma = tested on: SK-MEL-28 melanoma
UACC-257 melanoma = tested on: UACC-257 melanoma
SF-539 CNS = tested on: SF-539 CNS
SF-295 CNS = tested on: SF-295 CNS
SN12C renal = tested on: SN12C renal
786-0 renal = tested on: 786-0 renal
MALME-3M melanoma = tested on: MALME-3M melanoma
SK-MEL-5 melanoma = tested on: SK-MEL-5 melanoma
MDA-MB-435 = tested on: MDA-MB-435
PC-3 prostate = tested on: PC-3 prostate
UACC-62 melanoma = tested on: UACC-62 melanoma
HCT-15 colon = tested on: HCT-15 colon
M14 melanoma = tested on: M14 melanoma
HCT-116 colon = tested on: HCT-116 colon
U251 CNS = tested on: U251 CNS
HCC-2998 colon = tested on: HCC-2998 colon
NCI/ADR-RES ovarian = tested on: NCI/ADR-RES ovarian
T-47D breast = tested on: T-47D breast
SK-OV-3 ovarian = tested on: SK-OV-3 ovarian
SNB-19 CNS = tested on: SNB-19 CNS
HOP-92 NSCLC = tested on: HOP-92 NSCLC
CAKI-1 renal = tested on: CAKI-1 renal
A498 renal = tested on: A498 renal
OVCAR-4 ovarian = tested on: OVCAR-4 ovarian
COLO 205 colon = tested on: COLO 205 colon
NCI-H226 lung = tested on: NCI-H226 lung

## COc1ccc(C(=O)c2cc(OC)c(OC)c(OC)c2)cc1OC
HT29 colon
  TGI: 9.75 µM
HL-60(TB) leukemia
  TGI: 11.7 µM
RXF 393 renal
  TGI: 6.3 µM
NCI-H460 lung
  TGI: > 100 µM
OVCAR-5 ovarian
  TGI: > 100 µM
DU-145 prostate
  TGI: > 100 µM
HS 578T breast
  TGI: 8.83 µM
SNB-75 CNS
  TGI: > 100 µM
SW-620 colon
  TGI: > 100 µM
MCF7 breast
  TGI: > 100 µM
RPMI-8226 leukemia
  TGI: > 100 µM
MDA-N
  TGI: > 100 µM
OVCAR-3 ovarian
  TGI: 9.47 µM
SR leukemia
  TGI: > 100 µM
NCI-H522 lung
  TGI: 12.3 µM
KM12 colon
  TGI: 28.9 µM
IGROV1 ovarian
  TGI: > 100 µM
OVCAR-8 ovarian
  TGI: > 100 µM
ACHN renal
  TGI: > 100 µM
HOP-62 NSCLC
  TGI: > 100 µM
SF-268 CNS
  TGI: > 100 µM
CCRF-CEM leukemia
  TGI: > 100 µM
K-562 leukemia
  TGI: > 100 µM
SK-MEL-2 melanoma
  TGI: > 100 µM
BT-549 breast
  TGI: > 100 µM
EKVX NSCLC
  TGI: > 100 µM
NCI-H23 lung
  TGI: > 100 µM
TK-10 renal
  TGI: > 100 µM
UO-31 renal
  TGI: 39.4 µM
MOLT-4 leukemia
  TGI: > 100 µM
LOX IMVI melanoma
  TGI: > 100 µM
A549 NSCLC
  TGI: > 100 µM
MDA-MB-231 breast
  TGI: > 100 µM
SK-MEL-28 melanoma
  TGI: > 100 µM
UACC-257 melanoma
  TGI: > 100 µM
SF-539 CNS
  TGI: 5.14 µM
SF-295 CNS
  TGI: 4.27 µM
SN12C renal
  TGI: > 100 µM
786-0 renal
  TGI: > 100 µM
MALME-3M melanoma
  TGI: > 100 µM
SK-MEL-5 melanoma
  TGI: > 100 µM
MDA-MB-435
  TGI: 1.89 µM
PC-3 prostate
  TGI: > 100 µM
UACC-62 melanoma
  TGI: > 100 µM
HCT-15 colon
  TGI: > 100 µM
M14 melanoma
  TGI: > 100 µM
HCT-116 colon
  TGI: > 100 µM
U251 CNS
  TGI: > 100 µM
HCC-2998 colon
  TGI: 5.79 µM
NCI/ADR-RES ovarian
  TGI: > 100 µM

## CC(=O)Oc1cc(C(F)(F)F)ccc1C(=O)OC1(C)OC(=O)c2ccc(C(F)(F)F)cc2O1 (centres undefined)
T-47D breast
  TGI: > 100 µM
SK-OV-3 ovarian
  TGI: > 100 µM
HT29 colon
  TGI: > 100 µM
HL-60(TB) leukemia
  TGI: > 100 µM
RXF 393 renal
  TGI: > 100 µM
NCI-H460 lung
  TGI: > 100 µM
OVCAR-5 ovarian
  TGI: > 100 µM
DU-145 prostate
  TGI: > 100 µM
SNB-75 CNS
  TGI: > 100 µM
SW-620 colon
  TGI: > 100 µM
MCF7 breast
  TGI: > 100 µM
MDA-N
  TGI: > 100 µM
SNB-19 CNS
  TGI: > 100 µM
OVCAR-3 ovarian
  TGI: > 100 µM
NCI-H522 lung
  TGI: > 100 µM
HOP-92 NSCLC
  TGI: > 100 µM
KM12 colon
  TGI: > 100 µM
IGROV1 ovarian
  TGI: > 100 µM
CAKI-1 renal
  TGI: > 100 µM
OVCAR-8 ovarian
  TGI: > 100 µM
ACHN renal
  TGI: > 100 µM
A498 renal
  TGI: > 100 µM
HOP-62 NSCLC
  TGI: > 100 µM
SF-268 CNS
  TGI: > 100 µM
CCRF-CEM leukemia
  TGI: > 100 µM
K-562 leukemia
  TGI: > 100 µM
BT-549 breast
  TGI: > 100 µM
EKVX NSCLC
  TGI: > 100 µM
NCI-H23 lung
  TGI: > 100 µM
TK-10 renal
  TGI: > 100 µM
UO-31 renal
  TGI: > 100 µM
MOLT-4 leukemia
  TGI: > 100 µM
LOX IMVI melanoma
  TGI: > 100 µM
A549 NSCLC
  TGI: > 100 µM
MDA-MB-231 breast
  TGI: > 100 µM
SK-MEL-28 melanoma
  TGI: > 100 µM
UACC-257 melanoma
  TGI: > 100 µM
SF-539 CNS
  TGI: > 100 µM
SF-295 CNS
  TGI: > 100 µM
SN12C renal
  TGI: > 100 µM
OVCAR-4 ovarian
  TGI: > 100 µM
786-0 renal
  TGI: > 100 µM
MALME-3M melanoma
  TGI: > 100 µM
COLO 205 colon
  TGI: > 100 µM
MDA-MB-435
  TGI: > 100 µM
PC-3 prostate
  TGI: > 100 µM
UACC-62 melanoma
  TGI: > 100 µM
HCT-15 colon
  TGI: > 100 µM
M14 melanoma
  TGI: > 100 µM
NCI-H226 lung
  TGI: > 100 µM
HCT-116 colon
  TGI: > 100 µM
U251 CNS
  TGI: > 100 µM
HCC-2998 colon
  TGI: > 100 µM
NCI/ADR-RES ovarian
  TGI: > 100 µM
